Test results reported in publication PMC9069370, “Integrated Design of a Membrane‐Lytic Peptide‐Based Intravenous Nanotherapeutic Suppresses Triple‐Negative Breast Cancer” (Advanced Science, 2022).
Peptide text beside a SMILES is read from it.

How the values were obtained:
HMLER = test: cells; assay type: cell-based, human; details: 72 h
Excerpt: (§1) […], and MCF-10A cells were maintained in MEGM with supplements and growth factors bovine pituitary extract, hydrocortisone, human epidermal growth factor, insulin, and gentamicin/amphotericin-B.

HMLER‐shEcad = test: cells; assay type: cell-based, human; details: 72 h
Excerpt: as §1

MCF‐10A = test: cells; assay type: cell-based, human; details: 72 h
Excerpt: as §1

U2OS = assay type: cell-based, human; details: 72 h
HEK293T = test: cells; assay type: cell-based, human; details: 72 h
[1] = Tryptophan fluorescent binding assay; details: tryptophan fluorescence; 50 µM peptide, lipid titrated 0-5000 µM; phosphate buffered saline 1X, pH 7.4; values as lipid per peptide
Protocol: 50 µM ACP peptides and varied concentrations (concentrations: 0, 25, 50, 100, 150, 200, 250, 500, 1250, and 2500 µM) of POPC or POPC:POPG (3:1 ratio) large unilamellar vesicles were prepared in 10 mM phosphate buffer (pH 7.0). The solutions were measured after 1 h of incubation. Excitation was fixed at 280 nm (slit 9 nm) and emission was collected from 300 to 450 nm (slit 9 nm). The spectra were recorded using Cytation 5 Cell Imaging Multi‐Mode Reader from BioTek and were averaged by three scans.
Lipid Concentration-induced
Name Sequence† 50% Peptide Binding (L/P)
Extended Data Table 3 | Tryptophan binding assay. […]
peptide binding onto liposome. 50 µM peptides were fixed and incubated with titrated lipid (POPC vesicle […]
phosphate buffered saline (1X, pH 7.4). The lipid concentration that causes 50 % peptide binding was determined using tryptophan fluorescent binding assay and the values are shown as lipid per peptide.

[2] = ANTS/DPX liposome leakage assay; details: for Peptide Concentration-induced 50 % ANTS/DPX leakage at pH 4.8 (L/P), 3POPC/1POPG Vesicle / Peptide Concentration-induced 50 % ANTS/DPX leakage at pH 4.8 (L/P), POPC Vesicle / Peptide Concentration-induced 50 % ANTS/DPX leakage at pH 7.4 (L/P), 3POPC/1POPG Vesicle / Peptide Concentration-induced 50 % ANTS/DPX leakage at pH 7.4 (L/P), POPC Vesicle: 0.5 mM vesicles, peptide 0-20 µM, 3 h incubation, lipid per peptide; for Peptide Concentration-induced 50 % ANTS/DPX leakage at pH 4.8 (L/P), 3POPC/1POPG Vesicle / Peptide Concentration-induced 50 % ANTS/DPX leakage at pH 4.8 (L/P), POPC Vesicle: HCl-adjusted PBS 1X pH 4.8; for Peptide Concentration-induced 50 % ANTS/DPX leakage at pH 7.4 (L/P), 3POPC/1POPG Vesicle / Peptide Concentration-induced 50 % ANTS/DPX leakage at pH 7.4 (L/P), POPC Vesicle: PBS 1X pH 7.4, high ratio = more potent
Protocol: Vesicle preparation: 5 mM ANTS and 12.5 mM DPX were entrapped in 0.1 µm diameter extruded vesicles (either POPC or POPC/POPG at a ratio of 3:1) with lipids. Gel filtration chromatography of Sephadex G‐100 was used to remove external free ANTS/DPX from LUVs with entrapped contents. LUVs were diluted to 0.5 mM and used to measure the leakage activity by the addition of aliquots of ACPs. Leakage was measured after 3 h incubation. 10% Triton was used as the positive control to measure the maximum leakage of the vesicle. Fluorescence emission spectra were recorded using excitation and emission wavelength of 350 and 510 nm for ANTS/DPX using a BioTek Synergy H1 Hybrid Multi‐Mode Reader.
Peptide Concentration-induced Peptide Concentration-induced
Name Sequence† 50 % ANTS/DPX leakage 50 % ANTS/DPX leakage at pH 7.4 (L/P) at pH 4.8 (L/P)
POPC Vesicle 3POPC/1POPG Vesicle POPC Vesicle 3POPC/1POPG Vesicle […]
Extended Data Table 4 | Peptide concentration-induced 50 % ANTS/DPX liposome leakage. 0.5 mM POPC and 3POPC/1POPG vesicles were fixed and incubated with titrated peptide concentration (0, 0.02, […]
hydrochloric acid-adjusted phoshate buffered saline (1X, pH 4.8). The values are shown as lipid per

Compound	IC50 (HMLER)	IC50 (HMLER‐shEcad)	IC50 (MCF‐10A)	IC50 (U2OS)	IC50 (HEK293T)	Lipid Concentration-induced 50% Peptide Binding (L/P), 3POPC/1POPG Vesicle [1]	Lipid Concentration-induced 50% Peptide Binding (L/P), POPC Vesicle [1]	Peptide Concentration-induced 50 % ANTS/DPX leakage at pH 4.8 (L/P), 3POPC/1POPG Vesicle [2]	Peptide Concentration-induced 50 % ANTS/DPX leakage at pH 4.8 (L/P), POPC Vesicle [2]	Peptide Concentration-induced 50 % ANTS/DPX leakage at pH 7.4 (L/P), 3POPC/1POPG Vesicle [2]	Peptide Concentration-induced 50 % ANTS/DPX leakage at pH 7.4 (L/P), POPC Vesicle [2]	change of ANTS/DPX dye leakage / liposome selectivity at pH 4.8 ([2]; pH = 4.8 compared with physiological pH, anionic versus neutral liposomes)
CC(C)C[C@H](NC(=O)CN)C(=O)N[C@@H](CC(C)C)C(=O)N[C@@H](CC(=O)O)C(=O)N[C@@H](CC(C)C)C(=O)N[C@@H](CC(C)C)C(=O)N[C@@H](Cc1c[nH]cn1)C(=O)N[C@@H](CC(C)C)C(=O)N[C@@H](CC(C)C)C(=O)N[C@@H](CC(C)C)C(=O)N[C@@H](CCC(=O)O)C(=O)N[C@@H](C)C(=O)N[C@@H](C)C(=O)NCC(=O)N[C@@H](Cc1c[nH]c2ccccc12)C(N)=O [DHE] (H-GLLDLLHLLLEAAGW-NH2)	3.75 ± 0.92 µM	2.8 ± 0.14 µM	22.7 ± 4.31 µM	17.2 ± 1.06 µM	11.1 ± 1.91 µM	0.72 L/P	1.00 L/P	469 L/P	58 L/P	581 L/P	566 L/P	–
CC(C)C[C@H](NC(=O)CN)C(=O)N[C@@H](CC(C)C)C(=O)N[C@@H](CC(=O)O)C(=O)N[C@@H](CC(C)C)C(=O)N[C@@H](CC(C)C)C(=O)N[C@@H](Cc1c[nH]cn1)C(=O)N[C@@H](CC(C)C)C(=O)N[C@@H](CC(C)C)C(=O)N[C@@H](CC(C)C)C(=O)N[C@@H](Cc1c[nH]cn1)C(=O)N[C@@H](C)C(=O)N[C@@H](C)C(=O)NCC(=O)N[C@@H](Cc1c[nH]c2ccccc12)C(N)=O [DHH] (H-GLLDLLHLLLHAAGW-NH2)	21.4 ± 2.47 µM	11.9 ± 0.14 µM	> 200 µM	55.9 ± 18.9 µM	6.4 ± 0.42 µM	0.28 L/P	0.67 L/P	98 L/P	106 L/P	692 L/P	684 L/P	–
CC(C)C[C@H](NC(=O)CN)C(=O)N[C@@H](CC(C)C)C(=O)N[C@@H](CC(=O)O)C(=O)N[C@@H](CC(C)C)C(=O)N[C@@H](CC(C)C)C(=O)N[C@@H](CCCCN)C(=O)N[C@@H](CC(C)C)C(=O)N[C@@H](CC(C)C)C(=O)N[C@@H](CC(C)C)C(=O)N[C@@H](CCC(=O)O)C(=O)N[C@@H](C)C(=O)N[C@@H](C)C(=O)NCC(=O)N[C@@H](Cc1c[nH]c2ccccc12)C(N)=O [DKE] (H-GLLDLLKLLLEAAGW-NH2)	2.1 µM	1.57 ± 0.33 µM	4.75 ± 0.49 µM	9.93 ± 0.25 µM	7.8 ± 1.41 µM	0.46 L/P	0.56 L/P	469 L/P	21 L/P	411 L/P	747 L/P	–
CC(C)C[C@H](NC(=O)CN)C(=O)N[C@@H](CC(C)C)C(=O)N[C@@H](CC(=O)O)C(=O)N[C@@H](CC(C)C)C(=O)N[C@@H](CC(C)C)C(=O)N[C@@H](CCCCN)C(=O)N[C@@H](CC(C)C)C(=O)N[C@@H](CC(C)C)C(=O)N[C@@H](CC(C)C)C(=O)N[C@@H](Cc1c[nH]cn1)C(=O)N[C@@H](C)C(=O)N[C@@H](C)C(=O)NCC(=O)N[C@@H](Cc1c[nH]c2ccccc12)C(N)=O [DKH] (H-GLLDLLKLLLHAAGW-NH2)	3.45 ± 0.07 µM	2.8 ± 0.28 µM	7.05 ± 0.21 µM	21.1 ± 3.01 µM	6.15 ± 1.34 µM	0.46 L/P	10.00 L/P	58 L/P	41 L/P	274 L/P	614 L/P	–
CC(C)C[C@H](NC(=O)CN)C(=O)N[C@@H](CC(C)C)C(=O)N[C@@H](CC(=O)O)C(=O)N[C@@H](CC(C)C)C(=O)N[C@@H](CC(C)C)C(=O)N[C@@H](CCCCN)C(=O)N[C@@H](CC(C)C)C(=O)N[C@@H](CC(C)C)C(=O)N[C@@H](CC(C)C)C(=O)N[C@@H](CCCCN)C(=O)N[C@@H](C)C(=O)N[C@@H](C)C(=O)NCC(=O)N[C@@H](Cc1c[nH]c2ccccc12)C(N)=O [DKK] (H-GLLDLLKLLLKAAGW-NH2)	1.95 ± 0.35 µM	1.2 ± 0.14 µM	2.57 ± 0.52 µM	10.4 ± 1.7 µM	3.4 ± 0.28 µM	6.88 L/P	2.75 L/P	227 L/P	47 L/P	156 L/P	463 L/P	–
CC(C)C[C@H](NC(=O)CN)C(=O)N[C@@H](CC(C)C)C(=O)N[C@@H](CCC(=O)O)C(=O)N[C@@H](CC(C)C)C(=O)N[C@@H](CC(C)C)C(=O)N[C@@H](Cc1c[nH]cn1)C(=O)N[C@@H](CC(C)C)C(=O)N[C@@H](CC(C)C)C(=O)N[C@@H](CC(C)C)C(=O)N[C@@H](Cc1c[nH]cn1)C(=O)N[C@@H](C)C(=O)N[C@@H](C)C(=O)NCC(=O)N[C@@H](Cc1c[nH]c2ccccc12)C(N)=O [EHH] (H-GLLELLHLLLHAAGW-NH2)	25.4 ± 2.76 µM	16.1 ± 3.18 µM	150 ± 71 µM	117 ± 7 µM	5.9 ± 0.14 µM	0.69 L/P	0.94 L/P	80 L/P	386 L/P	981 L/P	1043 L/P	increased selectivity for neutral bilayers
CC(C)C[C@H](NC(=O)CN)C(=O)N[C@@H](CC(C)C)C(=O)N[C@@H](CCC(=O)O)C(=O)N[C@@H](CC(C)C)C(=O)N[C@@H](CC(C)C)C(=O)N[C@@H](Cc1c[nH]cn1)C(=O)N[C@@H](CC(C)C)C(=O)N[C@@H](CC(C)C)C(=O)N[C@@H](CC(C)C)C(=O)N[C@@H](CCCCN)C(=O)N[C@@H](C)C(=O)N[C@@H](C)C(=O)NCC(=O)N[C@@H](Cc1c[nH]c2ccccc12)C(N)=O [EHK] (H-GLLELLHLLLKAAGW-NH2)	1.35 ± 0.35 µM	0.71 ± 0.13 µM	3.6 ± 0.99 µM	25 µM	5.35 ± 0.07 µM	0.42 L/P	0.56 L/P	117 L/P	55 L/P	505 L/P	981 L/P	–
CC(C)C[C@H](NC(=O)CN)C(=O)N[C@@H](CC(C)C)C(=O)N[C@@H](CCC(=O)O)C(=O)N[C@@H](CC(C)C)C(=O)N[C@@H](CC(C)C)C(=O)N[C@@H](CCCCN)C(=O)N[C@@H](CC(C)C)C(=O)N[C@@H](CC(C)C)C(=O)N[C@@H](CC(C)C)C(=O)N[C@@H](CCC(=O)O)C(=O)N[C@@H](C)C(=O)N[C@@H](C)C(=O)NCC(=O)N[C@@H](Cc1c[nH]c2ccccc12)C(N)=O [EKE] (H-GLLELLKLLLEAAGW-NH2)	1.8 ± 0.28 µM	1.3 ± 0.14 µM	8.8 µM	8 ± 0.71 µM	5.15 ± 0.21 µM	1.63 L/P	2.75 L/P	438 L/P	75 L/P	657 L/P	738 L/P	–
